Results on one substance are retold here after US8293231B2, “Methods and compositions for treating ischemia” (Blue Blood Biotech Corp., priority 2005, dated 2012).

Entries after “also recorded” stand apart in the source; their conditions may differ. Where only a bound is given, the exact number is not on record here.

Assay [1] concerns Matrigel plugs in FVB mice. In words: Murine angiogenesis assay (Matrigel plug). The assay is classed as in vivo.
Assay [2] addresses thrombin-dependent protein C activation (Homo sapiens, UniProt P00734). In words: Thrombomodulin activity assay (cofactor activity for thrombin-dependent protein C activation). The following applies: on an equal molar basis. Type of assay: biochemical. The protocol:
(§1) Cofactor activity of TMD2 and TMD23 for thrombin-dependent protein C activation was measured as described previously. Huang H C., et al Thrombomodulin-mediated cell adhesion: Involvement of its lectin-like domain. J Biol. Chem. 2003; 278:46750-46759.
(§2) Cofactor activity of TMD2 and TMD23 for thrombin-dependent protein C activation was measured as described previously. Huang H C., et al Thrombomodulin-mediated cell adhesion: Involvement of its lectin-like domain. J Biol. Chem. 2003; 278: 46750-46759.

Assay in assay [3]: as above
Type of assay: biochemical. The protocol:
as §1, §2

Assay [4] relates to ERK1/2, p38 MAPK, Akt, and eNOS phosphorylation in HUVECs. In words: Assay of ERK1/2, p38 MAPK, Akt and eNOS phosphorylation (Western blotting). The assay is classed as cell-based, human. The protocol:
HUVECs were cultured to confluence in a 6-cm-diameter dish and incubated in M199 containing 1% FBS for 18 h. Cells were washed and incubated with serum-free M199 for 6 h, and treated with the indicated concentration of TMD23. Cell lysates were separated by SDS-PAGE, and the levels of phospho-ERK1/2 (Tyr 204) and total ERK1/2, phospho-p38 (Thr-180/Tyr-182) and p38, phosphor-Akt (Ser-473) and Akt, and phospho-eNOS (Ser-1173) and eNOS were detected by Western blotting with specific antibodies (Cell Signaling Technology).
For orientation: A western blot detects proteins with antibodies after separation by electrophoresis.

Assay [5] deals with human umbilical vein endothelial cells (HUVECs). In words: Cell proliferation assay (BrdU incorporation). The assay is classed as cell-based. As for the experimental part: To evaluate the effect of TMD proteins on DNA synthesis in human umbilical vein endothelial cells (HUVECs), we performed a 5-bromo-2′-deoxyuridine (BrdU) incorporation assay with a commercial quantification kit (Roche Diagnostic GmbH) and manufacturer's protocol. Mitogenic effects induced by TMD proteins were also determined in the presence of polyclonal rabbit anti-TMD23 antibody (prepared by GlycoNex, Inc., Taiwan) that was purified by protein G-Sepharose column (Amersham Pharmacia Biotech AB).
To evaluate the effect of TMD proteins on DNA synthesis in human umbilical vein endothelial cells (HUVECs), a 5-bromo-2′-deoxyuridine (BrdU) incorporation assay were performed with a commercial quantification kit (Roche Diagnostic GmbH) and manufacturer's protocol. Mitogenic effects induced by TMD proteins were also determined in the presence of polyclonal rabbit anti-TMD23 antibody (prepared by GlycoNex, Inc., Taiwan) that was purified by protein G-Sepharose column (Amersham Pharmacia Biotech AB).
For orientation: Incorporation of labelled thymidine or its analogues reports DNA synthesis.

Assay [6] has as its system rat cornea. In words: Rat corneal angiogenesis assay. The assay is classed as in vivo, Sprague Dawley rats. The protocol:
(§3) The rat corneal assay was performed as described elsewhere. See eg., Kenyon B M., et al A model of angiogenesis in the mouse cornea. Invest Opthalmol Vis Sci. 1996; 37:1625-1632. Uniformly sized pellets of Hydron (polyhydroxyethylmethacrylate [poly HEMA]) (Sigma-Aldrich) containing either TMD23 or basic fibroblast growth factor (bFGF) and sucralfate (Sigma-Aldrich) were implanted into the rat corneal stroma adjacent to the temporal limbus. Briefly, sterile-saline suspensions containing 5-40 μg TMD23 or bFGF plus 10 mg sucralfate were made and speed vacuumed for 5 min; 12% Hydron in ethanol was added as described. The suspension was deposited onto an autoclaved, sterilized, 15-mm×15-mm nylon mesh. […] The eyes of Sprague Dawley rats (250-300 g) were topically anesthetized and a single pellet was inserted into a surgically created pocket in the corneal stroma. Corneas were examined daily with a dissecting microscope for up to 24 days for capillary growth. Maximal vessel length, clock h, and vascular areas of corneas of all rats were measured with a slit-lamp stereomicroscope.
as §3, with “elsewhere.” for “elsewhere. See eg., Kenyon B M., et al A model of angiogenesis in the mouse cornea. Invest Opthalmol Vis Sci. 1996; 37:1625-1632.”, “clock hour,” for “clock h,”

With “TMD23: Recombinant human thrombomodulin fragment, amino acids Ala242-Ser515 of SEQ ID NO: 2: six EGF-like structures (D2) plus Ser/Thr-rich domain D3”, the “Appearance of Matrigel plugs, without heparin” value in assay [1] is “pale”. For the same substance, the “Cofactor activity higher than that of TMD2” value in assay [2] came out at 25%. For the same substance, the “Cofactor activity for thrombin-dependent protein C activation” value in assay [3] is recorded as 2,650 pmol of APC formed/min/mg TMD23. Also, in assay [4] (FIG. 3B), the “Time of maximal phosphorylation (ERK, p38, and Akt)” value is recorded as “about 30 min”; the “Time of maximal phosphorylation (eNOS)” value is on record as approximately 120 min. Further, the “ERK1/2, p38, Akt, and eNOS phosphorylation in HUVECs” value in assay [4] (total proteins remained constant, FIG. 3A) is on record as “dose-dependently induced”. Further, in assay [5] (4.5 nM (150 ng/mL)), the “Stimulation of HUVEC proliferation” value is reported as “roughly two-fold”. In assay [5] (BrdU incorporation, FIG. 2A), the “DNA synthesis in HUVECs” value was “stimulated DNA synthesis”. The “Mitogenic activity / stimulation of HUVEC proliferation compared with TMD2” value in assay [5] (FIG. 2A) is reported as “higher mitogenic activity than TMD2; also recorded: more effective than TMD2”. The “Day of maximal response” value in assay [6] (90-ng dose) is 10 days. The “Maximal response compared with bFGF” value in assay [6] (90-ng dose, day 10) is reported as “slightly greater than the response to 90 ng bFGF”. The Corneal neovascularization entry in assay [6] (implants in rat cornea) is “induced dose-dependent and time-dependent corneal neovascularization”. In assay [6] (response regressed gradually after day 10), the “Day of complete abrogation of angiogenic response” value was not above 24 days.
